Columns and labels:
Assay in all cases: Test F preemergence/postemergence greenhouse plant response rating 0 to 100
green foxtail = type: in vivo, Setaria viridis; details: POSTEMERGENCE, 0 to 100 scale
Excerpt: (§1) Compounds evaluated in this test were formulated in a non-phytoxic solvent and applied to the soil surface before plant seedlings emerged (preemergence application) and to plants that were in the one-to-four leaf stage (postemergence application). A sandy loam soil was used for the preemergence test while a mixture of sandy loam soil and greenhouse potting mix in a 60:40 ratio was used for the postemergence test. Test compounds were applied within approximately one day after planting seeds for the preemergence test. Plantings of these crops and weed species were adjusted to produce plants of appropriate size for the postemergence test. All plant species were grown using normal greenhouse practices. Crop and weed species include winter barley (Hordeum vulgare cv. ‘Igri’), blackgrass (Alopecurus myosuroides), chickweed (Stellaria media), downy brome (Bromus tectorum), field violet (Viola arvensis), galium (Galium aparine), green foxtail (Setaria viridis), kochia (Kochia scoparia), lambsquarters (Chenopodium album), speedwell (Veronica persica), rape (Brassica napus), ryegrass (Lolium multiflorum), sugar beet (Beta vulgaris cv. ‘USl’), sunflower (Helianthus annuus cv. ‘Russian Giant’), spring wheat (Triticum aestivum cv. ‘ERA’), winter wheat (Triticum aestivum cv. ‘Talent’), wild buckwheat (Polygonum convolvulus), wild mustard (Sinapis arvensis), wild oat (Avena fatua), and wild radish (Raphanus raphanistrum). Blackgrass, galium and wild oat were treated at two growth stages. […] Treated plants and untreated controls were maintained in a greenhouse for approximately 21 to 28 days, after which all treated plants were compared to untreated controls and visually evaluated. […] A dash response (-) means no test result.

speedwell = type: in vivo, Veronica persica; details: POSTEMERGENCE, 0 to 100 scale
Excerpt: as §1

blackgrass = type: in vivo, Alopecurus myosuroides; details: POSTEMERGENCE, 0 to 100 scale; for Blackgrass (1) plant response rating: stage (1) two to three leaves; for Blackgrass (2) plant response rating: stage (2) approximately four leaves or initial tillering
Excerpt: as §1

ryegrass = type: in vivo, Lolium multiflorum; details: POSTEMERGENCE, 0 to 100 scale
Excerpt: as §1

winter wheat = type: in vivo, Triticum aestivum cv. ‘Talent’; details: POSTEMERGENCE, 0 to 100 scale
Excerpt: as §1

sunflower = type: in vivo, Helianthus annuus cv. ‘Russian Giant’; details: POSTEMERGENCE, 0 to 100 scale
Excerpt: as §1

galium = type: in vivo, Galium aparine; details: POSTEMERGENCE, 0 to 100 scale; for Galium (1) plant response rating: stage (1) two to three leaves; for Galium (2) plant response rating: stage (2) approximately four leaves or initial tillering
Excerpt: as §1

downy brome = type: in vivo, Bromus tectorum; details: POSTEMERGENCE, 0 to 100 scale
Excerpt: as §1

wild radish = type: in vivo, Raphanus raphanistrum; details: POSTEMERGENCE, 0 to 100 scale
Excerpt: as §1

spring wheat = type: in vivo, Triticum aestivum cv. ‘ERA’; details: POSTEMERGENCE, 0 to 100 scale
Excerpt: as §1

wild buckwheat = type: in vivo, Polygonum convolvulus; details: POSTEMERGENCE, 0 to 100 scale
Excerpt: as §1

lambsquarters = type: in vivo, Chenopodium album; details: POSTEMERGENCE, 0 to 100 scale
Excerpt: as §1

rape = type: in vivo, Brassica napus; details: POSTEMERGENCE, 0 to 100 scale
Excerpt: as §1

Fc1cc(Cl)c(OCCCl)cc1-c1nn2c(c1Cl)CCCC2 [Compound 49]
60: Green foxtail plant response rating (green foxtail; Rate 32 g/ha) | Persn Speedwell plant response rating (speedwell; Rate 8 g/ha)
0: Green foxtail plant response rating (green foxtail; Rate 2 g/ha) | Green foxtail plant response rating (green foxtail; Rate 4 g/ha) | Blackgrass (1) plant response rating (blackgrass; Rate 2 g/ha) | Blackgrass (2) plant response rating (blackgrass; Rate 2 g/ha) | Blackgrass (1) plant response rating (blackgrass; Rate 4 g/ha) | Blackgrass (2) plant response rating (blackgrass; Rate 4 g/ha) | Blackgrass (1) plant response rating (blackgrass; Rate 8 g/ha) | Blackgrass (2) plant response rating (blackgrass; Rate 8 g/ha) | Blackgrass (1) plant response rating (blackgrass; Rate 16 g/ha) | Blackgrass (2) plant response rating (blackgrass; Rate 16 g/ha) | Blackgrass (1) plant response rating (blackgrass; Rate 32 g/ha) | Ryegrass plant response rating (ryegrass; Rate 2 g/ha) | Ryegrass plant response rating (ryegrass; Rate 4 g/ha) | Ryegrass plant response rating (ryegrass; Rate 8 g/ha) | Ryegrass plant response rating (ryegrass; Rate 16 g/ha) | Wheat (Winter) plant response rating (winter wheat; Rate 2 g/ha) | Sunflower plant response rating (sunflower; Rate 2 g/ha) | Sunflower plant response rating (sunflower; Rate 4 g/ha) | Sunflower plant response rating (sunflower; Rate 8 g/ha) | Sunflower plant response rating (sunflower; Rate 16 g/ha) | Sunflower plant response rating (sunflower; Rate 32 g/ha) | Galium (1) plant response rating (galium; Rate 2 g/ha) | Galium (2) plant response rating (galium; Rate 2 g/ha) | Downy brome plant response rating (downy brome; Rate 2 g/ha) | Downy brome plant response rating (downy brome; Rate 4 g/ha) | Downy brome plant response rating (downy brome; Rate 8 g/ha) | Wild radish plant response rating (wild radish; Rate 2 g/ha) | Wild radish plant response rating (wild radish; Rate 4 g/ha) | Wheat (Spring) plant response rating (spring wheat; Rate 2 g/ha) | Wheat (Spring) plant response rating (spring wheat; Rate 4 g/ha) | Wheat (Spring) plant response rating (spring wheat; Rate 8 g/ha) | Rape plant response rating (rape; Rate 2 g/ha) | Rape plant response rating (rape; Rate 4 g/ha) | Rape plant response rating (rape; Rate 8 g/ha) | Rape plant response rating (rape; Rate 16 g/ha)
35: Galium (1) plant response rating (galium; Rate 8 g/ha)
50: Green foxtail plant response rating (green foxtail; Rate 16 g/ha) | Persn Speedwell plant response rating (speedwell; Rate 2 g/ha) | Persn Speedwell plant response rating (speedwell; Rate 4 g/ha) | Lambsquarters plant response rating (lambsquarters; Rate 4 g/ha) | Lambsquarters plant response rating (lambsquarters; Rate 16 g/ha)
30: Galium (1) plant response rating (galium; Rate 4 g/ha) | Galium (2) plant response rating (galium; Rate 4 g/ha) | Galium (2) plant response rating (galium; Rate 8 g/ha)
70: Lambsquarters plant response rating (lambsquarters; Rate 32 g/ha)
20: Green foxtail plant response rating (green foxtail; Rate 8 g/ha) | Ryegrass plant response rating (ryegrass; Rate 32 g/ha) | Wheat (Winter) plant response rating (winter wheat; Rate 32 g/ha) | Wheat (Spring) plant response rating (spring wheat; Rate 32 g/ha) | Rape plant response rating (rape; Rate 32 g/ha)
40: Galium (1) plant response rating (galium; Rate 16 g/ha) | Galium (2) plant response rating (galium; Rate 16 g/ha) | Galium (1) plant response rating (galium; Rate 32 g/ha) | Galium (2) plant response rating (galium; Rate 32 g/ha)
10: Blackgrass (2) plant response rating (blackgrass; Rate 32 g/ha) | Wheat (Winter) plant response rating (winter wheat; Rate 4 g/ha) | Wheat (Winter) plant response rating (winter wheat; Rate 8 g/ha) | Wheat (Winter) plant response rating (winter wheat; Rate 16 g/ha) | Downy brome plant response rating (downy brome; Rate 16 g/ha) | Downy brome plant response rating (downy brome; Rate 32 g/ha) | Wild radish plant response rating (wild radish; Rate 8 g/ha) | Wheat (Spring) plant response rating (spring wheat; Rate 16 g/ha)
100: Persn Speedwell plant response rating (speedwell; Rate 16 g/ha) | Persn Speedwell plant response rating (speedwell; Rate 32 g/ha) | Wild radish plant response rating (wild radish; Rate 16 g/ha) | Wild buckwheat plant response rating (wild buckwheat; Rate 2 g/ha) | Wild buckwheat plant response rating (wild buckwheat; Rate 4 g/ha) | Wild buckwheat plant response rating (wild buckwheat; Rate 8 g/ha) | Wild buckwheat plant response rating (wild buckwheat; Rate 16 g/ha) | Wild buckwheat plant response rating (wild buckwheat; Rate 32 g/ha)

C#CC(C)N1C(=O)COc2cc(F)c(-c3nn4c(c3Cl)CCCC4)cc21 (stereo not drawn) [Compound 50]
0: Green foxtail plant response rating (green foxtail; Rate 16 g/ha) | Green foxtail plant response rating (green foxtail; Rate 32 g/ha) | Blackgrass (1) plant response rating (blackgrass; Rate 16 g/ha) | Blackgrass (2) plant response rating (blackgrass; Rate 16 g/ha) | Blackgrass (1) plant response rating (blackgrass; Rate 32 g/ha) | Blackgrass (2) plant response rating (blackgrass; Rate 32 g/ha) | Blackgrass (1) plant response rating (blackgrass; Rate 64 g/ha) | Blackgrass (2) plant response rating (blackgrass; Rate 64 g/ha) | Ryegrass plant response rating (ryegrass; Rate 16 g/ha) | Ryegrass plant response rating (ryegrass; Rate 32 g/ha) | Ryegrass plant response rating (ryegrass; Rate 64 g/ha) | Wheat (Winter) plant response rating (winter wheat; Rate 16 g/ha) | Wheat (Winter) plant response rating (winter wheat; Rate 32 g/ha) | Wheat (Winter) plant response rating (winter wheat; Rate 64 g/ha) | Wheat (Winter) plant response rating (winter wheat; Rate 125 g/ha) | Downy brome plant response rating (downy brome; Rate 16 g/ha) | Downy brome plant response rating (downy brome; Rate 32 g/ha) | Downy brome plant response rating (downy brome; Rate 64 g/ha) | Downy brome plant response rating (downy brome; Rate 125 g/ha) | Wheat (Spring) plant response rating (spring wheat; Rate 16 g/ha) | Wheat (Spring) plant response rating (spring wheat; Rate 32 g/ha) | Wheat (Spring) plant response rating (spring wheat; Rate 64 g/ha)
10: Ryegrass plant response rating (ryegrass; Rate 125 g/ha) | Wheat (Spring) plant response rating (spring wheat; Rate 125 g/ha)
50: Green foxtail plant response rating (green foxtail; Rate 64 g/ha) | Green foxtail plant response rating (green foxtail; Rate 125 g/ha) | Wild radish plant response rating (wild radish; Rate 16 g/ha) | Wild radish plant response rating (wild radish; Rate 32 g/ha) | Lambsquarters plant response rating (lambsquarters; Rate 32 g/ha)
55: Wild radish plant response rating (wild radish; Rate 64 g/ha)
70: Wild radish plant response rating (wild radish; Rate 125 g/ha)
100: Persn Speedwell plant response rating (speedwell; Rate 16 g/ha) | Persn Speedwell plant response rating (speedwell; Rate 32 g/ha) | Persn Speedwell plant response rating (speedwell; Rate 64 g/ha) | Persn Speedwell plant response rating (speedwell; Rate 125 g/ha) | Sunflower plant response rating (sunflower; Rate 125 g/ha) | Galium (1) plant response rating (galium; Rate 16 g/ha) | Galium (2) plant response rating (galium; Rate 16 g/ha) | Galium (1) plant response rating (galium; Rate 32 g/ha) | Galium (2) plant response rating (galium; Rate 32 g/ha) | Galium (1) plant response rating (galium; Rate 64 g/ha) | Galium (2) plant response rating (galium; Rate 64 g/ha) | Galium (1) plant response rating (galium; Rate 125 g/ha) | Galium (2) plant response rating (galium; Rate 125 g/ha) | Wild buckwheat plant response rating (wild buckwheat; Rate 32 g/ha) | Wild buckwheat plant response rating (wild buckwheat; Rate 64 g/ha) | Wild buckwheat plant response rating (wild buckwheat; Rate 125 g/ha) | Lambsquarters plant response rating (lambsquarters; Rate 64 g/ha) | Lambsquarters plant response rating (lambsquarters; Rate 125 g/ha) | Rape plant response rating (rape; Rate 16 g/ha) | Rape plant response rating (rape; Rate 32 g/ha) | Rape plant response rating (rape; Rate 64 g/ha) | Rape plant response rating (rape; Rate 125 g/ha)
40: Blackgrass (1) plant response rating (blackgrass; Rate 125 g/ha) | Sunflower plant response rating (sunflower; Rate 16 g/ha) | Wild buckwheat plant response rating (wild buckwheat; Rate 16 g/ha)
30: Lambsquarters plant response rating (lambsquarters; Rate 16 g/ha)
20: Blackgrass (2) plant response rating (blackgrass; Rate 125 g/ha)
60: Sunflower plant response rating (sunflower; Rate 32 g/ha) | Sunflower plant response rating (sunflower; Rate 64 g/ha)

— US6358885B1, “Substituted phenylheterocyclic herbicides” (Mississippi State University, priority 1992, dated 2002)
